{"source": "patent US20240279236A1", "about": "“COMPOUNDS AND METHODS OF TREATING TUBERCULOSIS” (Fimbrion Therapeutics, Inc., priority 2021, published 2024)", "data": [{"tested_on": "WT Mtb Erdman strain", "assay": "Microplate Alamar Blue Assay (MABA), Mtb growth inhibition", "format": "cell-based, Mycobacterium tuberculosis", "settings": "Mycobacterium tuberculosis, ERDMAN, 168 h, Middlebrook 7H9 media, 7 days at 37° C. in 5% CO2", "units": {"IC50": "nM"}, "values": [{"smiles": "COc1ccccc1CCCNc1nc(C(F)(F)F)nc2sc(C)cc12", "note": "[Example 161, N-(3-(2-methoxyphenyl)propyl)-6-methyl-2-(trifluoromethyl) thieno[2,3-d]pyrimidin-4-amine]", "IC50": 4400}, {"smiles": "Cc1cc2c(NCC#Cc3ccccc3)nc(C(F)(F)F)nc2s1", "note": "[Example 162, 6-methyl-N-(3-phenylprop-2-yn-1-yl)-2-(trifluoromethyl) thieno[2,3-d] pyrimidin-4-amine]", "IC50": 6000}, {"smiles": "Cc1cc2c(NCC(O)Cc3ccccc3)nc(C(F)(F)F)nc2s1", "note": "(stereo not drawn) [Example 163, 1-((6-methyl-2-(trifluoromethyl)thieno[2,3-d]pyrimidin-4-yl)amino)-3-phenylpropan-2-ol]", "IC50": "> 10000"}, {"smiles": "Cc1cc2c(NCCCn3cccc3)nc(C(F)(F)F)nc2s1", "note": "[Example 164, N-(3-(1H-pyrrol-1-yl)propyl)-6-methyl-2-(trifluoromethyl) thieno[2,3-d] pyrimidin-4-amine]", "IC50": 1700}, {"smiles": "Cc1cc2c(NCCCN3CCCc4ccccc43)nc(C(F)(F)F)nc2s1", "note": "[Example 165, N-(3-(3,4-dihydroquinolin-1(2H)-yl)propyl)-6-methyl-2-(trifluoromethyl) thieno[2,3-d] pyrimidin-4-amine]", "IC50": 2000}, {"smiles": "Cc1cc2c(NCCCc3ccccc3)nc(C(F)(F)F)nc2s1", "note": "[Example 166, 6-methyl-N-(3-phenylpropyl)-2-(trifluoromethyl) thieno[2,3-d] pyrimidin-4-amine]", "IC50": "< 510"}, {"smiles": "Cc1cc2c(N[C@@H]3C[C@H]3c3ccccc3)nc(C(F)(F)F)nc2s1", "note": "[Example 167, 6-methyl-N-((1R,2S)-2-phenylcyclopropyl)-2-(trifluoromethyl) thieno[2,3-d] pyrimidin-4-amine]", "IC50": 490}, {"smiles": "Cc1cc2c(N[C@H]3C[C@@H]3c3ccccc3)nc(C(F)(F)F)nc2s1", "note": "[Example 168, 6-methyl-N-((1S,2R)-2-phenylcyclopropyl)-2-(trifluoromethyl) thieno[2,3-d] pyrimidin-4-amine]", "IC50": 3200}, {"smiles": "Cc1cc2c(NC(CCc3ccccc3)C(F)(F)F)nc(C(F)(F)F)nc2s1", "note": "(stereo not drawn) [Example 169, 6-methyl-N-(1,1,1-trifluoro-4-phenylbutan-2-yl)-2-(trifluoromethyl) thieno[2,3-d] pyrimidin-4-amine]", "IC50": "> 10000"}, {"smiles": "CCc1nc(NCCC(c2ccccc2)c2ccccc2)c2cc(C)sc2n1", "note": "[Example 170, N-(3,3-diphenylpropyl)-2-ethyl-6-methylthieno[2,3-d]pyrimidin-4-amine]", "IC50": 360}, {"smiles": "Cc1cc2c(NCCC(O)c3ccccc3)nc(C(F)(F)F)nc2s1", "note": "(stereo not drawn) [Example 171, 3-((6-methyl-2-(trifluoromethyl)thieno [2,3-d]pyrimidin-4-yl)amino)-1-phenylpropan-1-ol]", "IC50": "> 9500"}, {"smiles": "Cc1cc2c(NCCCN(C)c3ccccc3)nc(C(F)(F)F)nc2s1", "note": "[Example 172, N1-methyl-N3-(6-methyl-2-(trifluoromethyl)thieno[2,3-d]pyrimidin-4-yl)-N1-phenylpropane-1,3-diamine]", "IC50": 4200}, {"smiles": "Cc1cc2c(NCCCNc3ccccc3)nc(C(F)(F)F)nc2s1", "note": "[Example 173, N1-(6-methyl-2-(trifluoromethyl)thieno[2,3-d]pyrimidin-4-yl)-N3-phenylpropane-1,3-diamine]", "IC50": 3300}, {"smiles": "Cc1cc2c(NCCCn3ccc4ccccc43)nc(C(F)(F)F)nc2s1", "note": "[Example 177, N-(3-(1H-indol-1-yl)propyl)-6-methyl-2-(trifluoromethyl) thieno[2,3-d] pyrimidin-4-amine]", "IC50": 4700}, {"smiles": "Cc1cc2c(NCCCc3ccc(N(C)C)cc3)nc(C(F)(F)F)nc2s1", "note": "[Example 178, N-(3-(4-(dimethylamino)phenyl)propyl)-6-methyl-2-(trifluoromethyl) thieno[2,3-d] pyrimidin-4-amine]", "IC50": 1300}, {"smiles": "Cc1cc2c(NCCCc3cccc(C(F)(F)F)c3)nc(C(F)(F)F)nc2s1", "note": "[Example 179, 6-methyl-2-(trifluoromethyl)-N-(3-(3-(trifluoromethyl)phenyl)propyl) thieno[2,3-d] pyrimidin-4-amine]", "IC50": 1700}, {"smiles": "Cc1cc2c(NCCc3ccc4ccccc4n3)nc(C(F)(F)F)nc2s1", "note": "[Example 180, 6-methyl-N-(2-(quinolin-2-yl)ethyl)-2-(trifluoromethyl) thieno[2,3-d] pyrimidin-4-amine]", "IC50": "> 10000"}, {"smiles": "Cc1cc2c(N[C@@H]3C[C@H]3c3ccc(F)cc3)nc(C(F)(F)F)nc2s1", "note": "[Example 181, N-((1R,2S)-2-(4-fluorophenyl)cyclopropyl)-6-methyl-2-(trifluoromethyl) thieno[2,3-d] pyrimidin-4-amine]", "IC50": 1300}, {"smiles": "Cc1cc2c(NCCC(=O)Nc3ccccc3)nc(C(F)(F)F)nc2s1", "note": "[Example 182, 3-((6-methyl-2-(trifluoromethyl)thieno[2,3-d]pyrimidin-4-yl)amino)-N-phenylpropanamide]", "IC50": "> 10000"}, {"smiles": "Cc1cc2c(NCCn3cccc3)nc(C(F)(F)F)nc2s1", "note": "[Example 183, N-(2-(1H-pyrrol-1-yl)ethyl)-6-methyl-2-(trifluoromethyl) thieno[2,3-d]pyrimidin-4-amine]", "IC50": "> 10000"}, {"smiles": "Cc1cc2c(NCCCc3ccc(O)cc3)nc(C(F)(F)F)nc2s1", "note": "[Example 184, 4-(3-((6-methyl-2-(trifluoromethyl)thieno[2,3-d]pyrimidin-4-yl)amino)propyl) phenol]", "IC50": "> 10000"}, {"smiles": "Cc1cc2c(NCCCc3ccc(F)cc3)nc(C(F)(F)F)nc2s1", "note": "[Example 185, N-(3-(4-fluorophenyl)propyl)-6-methyl-2-(trifluoromethyl) thieno[2,3-d] pyrimidin-4-amine]", "IC50": 2300}, {"smiles": "Cc1cc2c(NCC(C)(C)Cc3ccccc3)nc(C(F)(F)F)nc2s1", "note": "[Example 186, N-(2,2-dimethyl-3-phenylpropyl)-6-methyl-2-(trifluoromethyl) thieno[2,3-d] pyrimidin-4-amine]", "IC50": "> 10000"}, {"smiles": "Cc1cc2c(NCCC(C)c3ccccc3)nc(C(F)(F)F)nc2s1", "note": "(stereo not drawn) [Example 187, 6-methyl-N-(3-phenylbutyl)-2-(trifluoromethyl) thieno[2,3-d] pyrimidin-4-amine]", "IC50": 9100}, {"smiles": "Cc1cc2c(NCCCc3ccccc3F)nc(C(F)(F)F)nc2s1", "note": "[Example 188, N-(3-(2-fluorophenyl)propyl)-6-methyl-2-(trifluoromethyl) thieno[2,3-d] pyrimidin-4-amine]", "IC50": 5100}, {"smiles": "CCc1nc(NCCCc2ccccc2OC)c2cc(C)sc2n1", "note": "[Example 189, 2-ethyl-N-(3-(2-methoxyphenyl)propyl)-6-methylthieno[2,3-d]pyrimidin-4-amine]", "IC50": 2800}, {"smiles": "CCc1nc(NCCCc2cccc(C(F)(F)F)c2)c2cc(C)sc2n1", "note": "[Example 190, 2-ethyl-6-methyl-N-(3-(3-(trifluoromethyl)phenyl)propyl) thieno[2,3-d] pyrimidin-4-amine]", "IC50": 550}, {"smiles": "CCc1nc(NCCCc2ccc(F)cc2)c2cc(C)sc2n1", "note": "[Example 191, 2-ethyl-N-(3-(4-fluorophenyl)propyl)-6-methylthieno[2,3-d]pyrimidin-4-amine]", "IC50": 360}, {"smiles": "CCc1nc(NCCCN2CCCc3ccccc32)c2cc(C)sc2n1", "note": "[Example 192, N-(3-(3,4-dihydroquinolin-1(2H)-yl)propyl)-2-ethyl-6-methylthieno[2,3-d]pyrimidin-4-amine]", "IC50": 930}, {"smiles": "CCc1nc(NCC#Cc2ccccc2)c2cc(C)sc2n1", "note": "[Example 193, 2-ethyl-6-methyl-N-(3-phenylprop-2-yn-1-yl)thieno[2,3-d]pyrimidin-4-amine]", "IC50": 1800}, {"smiles": "CCc1nc(NCC(O)Cc2ccccc2)c2cc(C)sc2n1", "note": "(stereo not drawn) [Example 194, 1-((2-ethyl-6-methylthieno[2,3-d]pyrimidin-4-yl)amino)-3-phenylpropan-2-ol]", "IC50": "> 10000"}, {"smiles": "CCc1nc(NCCCN(C)c2ccccc2)c2cc(C)sc2n1", "note": "[Example 195, N1-(2-ethyl-6-methylthieno[2,3-d]pyrimidin-4-yl)-N3-methyl-N3-phenylpropane-1,3-diamine]", "IC50": 680}, {"smiles": "CCc1nc(NCCCn2ccc3ccccc32)c2cc(C)sc2n1", "note": "[Example 196, N-(3-(1H-indol-1-yl)propyl)-2-ethyl-6-methylthieno[2,3-d]pyrimidin-4-amine]", "IC50": 450}, {"smiles": "CCc1nc(NCCCn2cccn2)c2cc(C)sc2n1", "note": "[Example 197, N-(3-(1H-pyrazol-1-yl)propyl)-2-ethyl-6-methylthieno[2,3-d]pyrimidin-4-amine]", "IC50": 8200}, {"smiles": "CCc1nc(NCCCc2cccc3ccccc23)c2cc(C)sc2n1", "note": "[Example 198, 2-ethyl-6-methyl-N-(3-(naphthalen-1-yl)propyl)thieno[2,3-d]pyrimidin-4-amine]", "IC50": 170}, {"smiles": "CCc1nc(NCCCc2ccc(Br)cc2)c2cc(C)sc2n1", "note": "[Example 199, N-(3-(4-bromophenyl)propyl)-2-ethyl-6-methylthieno[2,3-d]pyrimidin-4-amine]", "IC50": 120}, {"smiles": "CCc1nc(NCCCc2ccccc2F)c2cc(C)sc2n1", "note": "[Example 200, 2-ethyl-N-(3-(2-fluorophenyl)propyl)-6-methylthieno[2,3-d]pyrimidin-4-amine]", "IC50": 650}, {"smiles": "CCc1nc(NCCCc2ccc(Oc3ccccc3)cc2)c2cc(C)sc2n1", "note": "[Example 201, 2-ethyl-6-methyl-N-(3-(4-phenoxyphenyl)propyl)thieno[2,3-d]pyrimidin-4-amine]", "IC50": 610}, {"smiles": "CCc1nc(NCCCc2cccc(Br)c2)c2cc(C)sc2n1", "note": "[Example 202, N-(3-(3-bromophenyl)propyl)-2-ethyl-6-methylthieno[2,3-d]pyrimidin-4-amine]", "IC50": 260}, {"smiles": "CCc1nc(NCCCc2ccc(C(C)(C)C)cc2)c2cc(C)sc2n1", "note": "[Example 203, N-(3-(4-(tert-butyl)phenyl)propyl)-2-ethyl-6-methylthieno[2,3-d]pyrimidin-4-amine]", "IC50": 89}, {"smiles": "Cc1cc2c(NCCCc3ccc(Br)cc3)nc(C(F)(F)F)nc2s1", "note": "[Example 204, N-(3-(4-bromophenyl)propyl)-6-methyl-2-(trifluoromethyl) thieno[2,3-d] pyrimidin-4-amine]", "IC50": 1900}, {"smiles": "Cc1cc2c(NCCCc3cccc4ccccc34)nc(C(F)(F)F)nc2s1", "note": "[Example 205, 6-methyl-N-(3-(naphthalen-1-yl)propyl)-2-(trifluoromethyl) thieno[2,3-d] pyrimidin-4-amine]", "IC50": 1200}]}]}
